Series [1] deals with patients with Alzheimer's disease. The note with it: human, in vivo; cited from earlier work.
For series [2], the system named is healthy volunteers. The conditions noted are these: human, in vivo; cited from earlier work.
For series [3] the following is noted: in vivo, cited from earlier work.
In series [4] the test system is Male NMRI mice. Kind of series: novel object recognition test (learning and memory formation). The class given is in vivo. As to the method: (§1) Male NMRI mice (Charles River, Germany, 25-35 g) were used in examples 1, 2 and 3. The animals were housed nine per cage in a colony room under constant temperature (20±1° C.) and humidity (50±5%). Animals were allowed to acclimatize for at least one week prior to behavioral testing. The daylight cycle was maintained artificially (lights on from 0600 to 1800 hours) and behavioral experiments were conducted during the light phase. The Ethics Committee for Animal Experiments, Goteborg, Sweden, approved all experimental procedures used in the present study.
There are several learning and memory tasks that are appropriate for study in rodents. One widely used is the novel object recognition test. The test involves exposing the rodent to two identical objects for a brief period of time (the introductory session). […] Furthermore, very similar aspects of memory formation (involving encoding, con solidation and retrieval of information) can be assessed in human using the Brief Visual Memory Task-Revised (BVMT-R). […]
The object exploration time was manually scored from the videotapes. […]
Data are expressed as means and standard errors of the mean (S.E.M.). […]
A discrimination index was calculated for each animal: Tn/(Tf+Tn)*100 […]

Series [5] deals with humans. The conditions noted are these: cited from earlier work.
The test system of series [6] is Male NMRI mice. In words: habituation of acoustic startle response (non-associative learning). The class given is in vivo. The note with it: acute 1000 mg/kg intraperitoneally, block 6, versus saline, p<0.05, FIG. 2. The protocol:
as §1
The model used to measure non-associative learning was habituation of acoustic startle response. Habituation refers to the decrease in response to repeated presentation of identical stimuli and the model used for this test is also translational in nature. Since habituation is a measure of how the brain filter outs irrelevant stimuli and focus selectively on important stimuli, it is thought to be a prerequisite for other forms of learning and cognitive functions.
Acoustic startle was recorded using a MOPS 3 startle response recording system (see example 1). […]
The first startle pulse response was omitted from statistical analysis since it was too variable to achieve significance. […] Habituation, the change in mean response amplitude over time, was calculated using the formula: […]

Series [7] deals with mice. The note with it: pre-attentive information filtering; cited from earlier work.
Series [8] concerns patients with schizophrenia. The conditions noted are these: adjunctive treatment, 6 g/day; cited from earlier work.
Series [9] concerns Male NMRI mice. In words: prepulse inhibition (PPI) of acoustic startle response model (pre-attentive information processing). The note with it: for increase in capacity to filter information pre-attentively (absolute change in PPI at day 1 compared to matching test): acute administration, day 1, FIG. 1B; for effect on PPI response: day 1 and day 3, prepulse level 9 dB over background noise. The format is in vivo.
Description: One way to elucidate how substances affect our cognitive function is to measure how the brain processes information. Pre-attentive information processing is thought to be important for selective and efficient processing of sensory information and for coherent cognitive operations, and thus for memory and cognitive functions. Pre-attentive information processing can be assessed by using the prepulse inhibition (PPI) of acoustic startle response model. One major advantage of the PPI model is that it is a translational behavior. […] PPI is the reduction in reflex response to an intense stimulus when this stimulus is immediately preceded (30-500 ms) by a weak prestimulus. The presentation of the prestimulus, although not strong enough to elicit a measurable response by itself, evokes a short lasting sensory gating process in the brain, which is manifested by the attenuated response to the successive intense stimulus. PPI is hypothesized to reflect the ability of the central nervous system to filter out distracting and irrelevant stimuli before it reaches the cortex. An increased, i.e. improved, PPI could result in better inhibitory mechanisms that filter or gate intrinsic and extrinsic stimuli prior to higher order processing. […] Furthermore, PPI and other cognitive functions are regulated by the same cortico-striato-pallido-thalamic circuitry and association between these different cognitive domains has been shown.
as §1
Acoustic startle was recorded using a MOPS 3 startle response recording system (Metod och Produkt Svenska AB, Sweden). The animals were placed in small plexi glass cages (10×5.5×6 cm) that were suspended at the top of a piston. A movement of the animal in the cage caused a displacement of the piston, the acceleration of which was registered by a piezo-electric accelerometer. This signal was sampled and digitized by a microcomputer that also controlled the delivery of acoustic stimuli. Startle amplitude was defined as the maximum signal amplitude occurring 8-30 ms after the startle-eliciting stimulus. Four cages were used simultaneously and each cage was housed in a dimly lit and sound attenuated cabinet (52×42×38 cm). The cages were calibrated for equal sensitivity prior to testing and a mouse was always tested in the same cage at subsequent tests. The acoustic stimuli consisted of white noise, which was delivered by two high-frequency loudspeakers built into the ceiling of the cabinet.
Each test session started with an 8-min adaptation period containing only white background noise at 65 dB (A). Startle pulse was set to 105 dB (A) and prepulse intensities to 3, 9 and 12 dB (A) above background noise. Duration of acoustic stimuli was set to 20 ms for both prepulses and startle pulses and interstimulus interval (ISI) was set to 40 ms. Following the adaptation period the animals were subjected to a series of 5 startle pulse-alone trials that were omitted from the analysis since they only served to accommodate the animals to the sudden stimulus onset. The animals were then subjected to a pseudo-randomized combination of 3 prepulse-alone trials for each prepulse intensity, 45 pulse-alone trials and 15 prepulse+pulse trials for each prepulse intensity. Trials were separated by 5-15 s intervals.
All mice were first subjected to a pre-test to ensure that they expressed basal startle reactivity.

In the case of `COc1cc2c(cc1OC)C(=O)C(CC1CCN(Cc3ccccc3)CC1)C2` (stereo not shown) [Donezepil], in [1], the “effect on cognition in patients with Alzheimer's disease” value was “enhance cognition”. Moreover, the “effect on cognition in healthy volunteers” value in [2] is “no or detrimental effects on cognition”.

As to `NCCCC[C@H](N)C(=O)O` [L-lysine], the oral bioavailability result in series [3] (po) is recorded as “very good oral bioavailability”. Besides, in series [3], the blood-brain barrier penetration entry is on record as “easily penetrates the blood-brain barrier”. Besides, the “time exploring the two similar objects during the introductory session versus saline” value in series [4] (1000 mg/kg intraperitoneally 30 min before the introductory session) is recorded as “no difference”. Also, the “exploration of the familiar object, recognition session compared with introductory session” value in series [4] (1000 mg/kg intraperitoneally, 90 min delay, p<0.05, FIG. 3B) is recorded as “significantly less exploration of the familiar object”. Further, the “reported adverse effects in humans” value in series [5] (L-lysine treatment in general) was “transient gastrointestinal problems in a few patients”. In addition, the “adverse effects in long-term studies” value in series [5] (administration up to 2 years) is “have not revealed any adverse effects”. Besides, in [5] (doses as high as 40 g/day, resolved as the dose was decreased), the “reported adverse effects in short-term human studies” value is “abdominal cramps and transient diarrhea”. Further, the “habituation of the acoustic startle response” value in [6] is recorded as “improves the brain capacity to filter out irrelevant information”. For the same compound, the “effect on cognitive impairments induced by phencyclidine” value in [7] is on record as “can restore cognitive impairments”. Also, in series [8], the “effect on symptoms in patients with schizophrenia” value was “possibly can improve some symptoms”. In addition, the “pulse-alone response (acoustic startle; sedative properties)” value in [9] (500-2000 mg/kg) is recorded as “did not affect the pulse-alone response”. For the same compound, the “increase in capacity to filter information pre-attentively (absolute change in PPI at day 1 compared to matching test)” value worked out at 28.7% in series [9] (L-lysine 500 mg/kg intraperitoneally), 51.3% in [9] (L-lysine 1000 mg/kg intraperitoneally) and 9.0% in [9] (L-lysine 2000 mg/kg intraperitoneally). For the same compound, the “final PPI test at day 9” value in series [9] (after a 6-day washout period) is recorded as “did not demonstrate any significant effects”. Besides, the “effect on PPI response” value in series [9] (doses 500 mg/kg and 1000 mg/kg) is given as “improved the PPI response in a dose related manner”; in series [9] (highest dose 2000 mg/kg), “did not affect PPI significantly”. For the same compound, the “effect of test day on PPI (day 1 versus day 3, repeated administration)” value in series [9] (once daily for three days, 500-2000 mg/kg) is “no significant effect of test day”.

With `CC12CC3CC(C)(C1)CC(N)(C3)C2` [Memantine], the “effect on cognition in patients with Alzheimer's disease” value in series [1] is on record as “enhance cognition”. In series [2], the “effect on cognition in healthy volunteers” value is given as “no or detrimental effects on cognition”.

The values above are taken from patent publication US20110237670A1, “IMPROVEMENT OF NORMAL COGNITIVE FUNCTION” (priority 2008, published 2011).
